Source: patent US9856480B2, “Dnazyme for silencing the expression of EGFR” (DCB-USA LLC, priority 2013, dated 2018)
Strand notation (5' to 3'): a small letter for the sugar, then the base; units joined by * are phosphorothioate-linked, units joined directly phosphodiester-linked; [ ] holds rarer units or linkages, { } end groups; capitals alone tell only the bases. d = 2'-deoxy (DNA)

System: wild-type EGFR mRNA
Assay: Quantitative real-time PCR of EGFR mRNA knockdown
Format: cell-based, human
Details: 100 nM, 48 h
Experimental: A549, CL1-5, H1975, or CL97 was seeded onto 6-well at 3×10^5 cells/well and cultured overnight. Then, cells were separately treated with 100 nM DzControl or DzT790M-1 with lipofectamine 2000 (Invitrogen). After 48 h, total mRNA were extracted from DNAzyme-treated cells by Mestrisol following manufacturer's protocol. cDNA were synthesized by using RT III kit with random hexamers as primers (Invitrogen). The PCR primers were synthesized by Genomics BioSci & Tech (Taipei, Taiwan). The sequences of PCR primers are listed as follows: […]
The parameters for PCR were: 95° C. for 10 min, then 25 cycles of PCR at 95° C. for 30 s, 60° C. for 30 s, and 72° C. for 60 s. 3% agarose gels were used for electrophoresis of PCR products. The intensity of bands were quantified by Image J. Quantitative RT-PCR was performed on 40 ng total mRNA with the LightCycler 480 system (Roche). The PCR mix contained 5 μl of 2× Probe Master mix, 100 nM of UPL probe (Roche Diagnostics, Penzberg, Germany), 200 nM of forward primer and reverse primer, 0.1 ul RNAseout (Invitrogen), and 0.025 ul RTIII enzyme (Invitrogen) in a total volume of 10 μl. PCR parameters were as follows: 50° C. for 40 min, then 45 cycles of PCR at 95° C. for 10 s, 60° C. for 10 s, and 72° C. for 2 s. Data were analyzed by LC480 software (Roche Diagnostics, Penzberg, Germany). The relative amount of EGFR mRNA was normalized to ACTB mRNA. The sequences of PCR primers are as follows: […]
To examine the allele selectivity of DzT790M-1, EGFR mRNA knockdown efficiency was detected in two cell lines harboring wild-type EGFR (A549, CL1-5) and two cell lines containing EGFR T790M mutation (H1975, CL97). A549, CL1-5, H1975, or CL97 was seeded onto 6-well at 3×10^5 cells/well and cultured overnight. […]
Then, A549 and PC9 cells were separately treated with 50, 100, or 150 nM control DNAzyme or DzEGFR—ΔE746-A750 with Lipofectamine 2000 for 48 h. […] Quantitative RT-PCR was performed on 40 ng total mRNA with the LightCycler 480 system (Roche). […] Data were analyzed by LC480 software (Roche Diagnostics). […]

Substance: DzT790M-1: 10-23 DNAzyme against EGFR T790M mRNA, arms 10/4, phosphorothioate ends: AGCTGCATGAGGCTAGCTACAACGAGAGC (DNA dA*dGdCdTdGdCdAdTdGdAdGdGdCdTdAdGdCdTdAdCdAdAdCdGdAdGdAdG*dC; further chemistry not fully specified)
- wild-type EGFR mRNA knockdown (A549 cells): 1.1%
- wild-type EGFR mRNA knockdown (CL1-5 cells): 19.2%
